The text below walks through data of ChEMBL document CHEMBL3507680, “University of Dundee, Gates Library screen for HepG2 cell viability”.

The data set is described as follows: Human HepG2 cell viability assay in 384 well format. Further details: dose 125 nL, time 70.5 hour; concentration not given beside the values. It counts as toxicity, cell-based. To be noted: HepG2 cells, read-out: Inhibition.
`Cc1ccc(-c2nnc(C(C)N3CCc4cncnc4C3)o2)cc1` (centres undefined): the cytotoxicity at 70.5 h turned out to be 1.38%.
In the case of `CN(C)c1ncc2c(O)nc(C3CCCNC3)cc2n1` (centres undefined), the cytotoxicity at 70.5 h was -3.16%.
With `O=C([C@H]1COC[C@H]2CN(C3CCCC3)C[C@H]21)N1CCCO1`, the cytotoxicity at 70.5 h was 41.4%.
In the case of `CN(Cc1ccsc1)c1nc(-c2ccccn2)nc2c1CCNCC2` it was -9.47%; in that of `CC(C)CC(=O)N1CCCCC(NC(=O)CCc2cccnc2)C1` (centres undefined), -1.04%; in that of `N#Cc1cn(C2CC2)c(=O)n(CC(O)c2ccccc2C(F)(F)F)c1=O` (centres undefined), -15.2%.
In the case of `O=C(NS(=O)(=O)c1ccc(F)c(F)c1)c1cscn1` it was 17.8%; in that of `CS(=O)(=O)N1CCCC12CCN(Cc1ccoc1)CC2`, -3.22%.
As for `CC(=O)N1Cc2nccn2CC(CNC(=O)c2cnccn2)C1` (centres undefined), the cytotoxicity at 70.5 h is -13.1%.
In the case of `CCCC(=O)N1CC[C@@H]2[C@H](CC1)N(Cc1cccc(C)n1)CCS2(=O)=O`, the cytotoxicity at 70.5 h was -2.09%.
Consider `CN(C)C(=O)c1cn[nH]c1C1CCCN1Cc1c[nH]cn1` (centres undefined), for which the cytotoxicity at 70.5 h came out at 0.232%.
Turning to `CS(=O)(=O)NC1CCCN(Cc2ccc(OCc3ccccn3)cc2)C1` (centres undefined), the cytotoxicity at 70.5 h was -1.69%.
The figure for `Nc1ncccc1C(=O)NCc1cccc(Cl)c1` is -8.22%; for `CCCn1[nH]cc/c1=N\C(=O)CN1CCCC1Cn1cc(C)cn1` (centres undefined) it is -4.99%.
The figure for `CCS(=O)(=O)N1CCC(c2cc3n(n2)[C@@H](C(F)(F)F)C[C@@H](C)N3)CC1` is -17.1%.
The figure for `Cc1nonc1CNC(=O)C(C)Oc1cccc(F)c1` (centres undefined) is -8.47%; for `O=C(c1ccc2[nH]nnc2c1)N1CC[C@H](O)[C@]2(CCCO2)C1` it is -4.29%; for `NC(=O)C1CCN(C(=O)CCCc2nnc(-c3ccccc3)o2)CC1` it is -10.4%.
Consider `CN(C)c1ccccc1C(=O)N1CCCC(c2cccc(C(=O)O)c2)C1` (centres undefined), for which the cytotoxicity at 70.5 h is -8.42%.
Regarding `Cc1nc(C)n(CC2CCCN2CCCc2ccccc2)n1` (centres undefined), the cytotoxicity at 70.5 h is -6.68%.
In the case of `CC(c1ccccn1)N(C)Cc1ccc(-n2ccnc2)cc1` (centres undefined) it was 1.45%; in that of `CS(=O)(=O)c1ccc(OCCNCc2ccc(F)cc2F)cc1`, 0.183%; in that of `CCOC(=O)[C@@H]1[C@H]2CN(C(=O)OC)CCN2C[C@H]1c1ccccc1`, -5.21%.
In the case of `c1cnc(OCc2nnc3n2CCN(CC2CCOCC2)C3)nc1`, the cytotoxicity at 70.5 h was -7.25%.
In the case of `Cc1n[nH]c(C)c1NC(=O)CN1CCN(c2nccs2)C(C)C1` (centres undefined) it was -1.01%.
In the case of `Cc1cc(C)c2nc(CN[C@H]3CCCNC3)cc(O)c2c1` it was -2.89%; in that of `O=S(=O)(Cc1ccccc1Cl)N1CCC2(CC1)OCCS2`, -5.23%.
The figure for `Cn1cc(CNCC(c2ccc(Cl)cc2)n2cccn2)cn1` (centres undefined) is -5.62%.
Take `Cn1ccc2c(C(=O)NCCCN3CCOCC3)cccc21`: the cytotoxicity at 70.5 h worked out at 11.5%.
The figure for `CCN1Cc2c(C(=O)NC(C)C)ncn2-c2ccccc2S1(=O)=O` is -16.2%.
The figure for `Cc1cc(N2CCN(C(=O)Cc3c(C)nc(C)[nH]c3=O)CC2)cc(C)n1` is 18.5%; for `CC(C)N1CCC2(CC1)C[C@@H](O)[C@H](c1ccccc1)NC2=O` it is 9.43%; for `CCn1ccnc1CN1CCN(c2nccc(OC)n2)CC1C` (centres undefined) it is 18.6%.
In the case of `CN(C)CC1CSCCCN1C(=O)c1cccc(C(F)(F)F)c1` (centres undefined) it was 3.74%; in that of `CC1=N[C@@]2(CC[C@@H]3CN(C(=O)NC(C)C)C[C@@H]32)C(=O)N1CC(C)C`, -3.41%; in that of `CN(C)C(=O)[C@@H]1CCO[C@@H]2CCN(Cc3ccc4c(c3)OCO4)C[C@@H]21`, -21.3%.
In the case of `O=C(O)c1cnc2c(cnn2C2CCCC2)c1`, the cytotoxicity at 70.5 h is -0.534%.
The figure for `CCc1cnc(N2CCCOC(CN3CCCC3)C2)nc1` (centres undefined) is 7.5%; for `Cc1cc(=O)n(CC(=O)NCC2CCCO2)c(-c2ccccc2)n1` (centres undefined) it is 2.72%.
In the case of `Cc1cc2[nH]c(O)nc2cc1NCc1ccccc1`, the cytotoxicity at 70.5 h is -12.7%.
For the compound `Cc1cc(C)n(C2CCCN(C(=O)c3csc(C4CC4)n3)C2)n1` (centres undefined), the cytotoxicity at 70.5 h is -11%.
The figure for `Cc1cnn(CCNCC(O)COc2c(C)ccc(C)c2C)c1` (centres undefined) is -5.42%; for `O=C(C1CC(=O)N(C2CCCC2)C1)N1CCN(CCn2cccc2)CC1` (centres undefined) it is -5.71%.
In the case of `COCC1(Nc2nc(C)nc3c2cnn3C)CCCC1` it was 3.28%; in that of `O=C(c1cnccn1)N1CCOC2(CCCN(c3ncccc3F)C2)C1` (centres undefined), -16.1%.
In the case of `CC1CN(CC(=O)NC2CCOCC2)CCN1Cc1nccn1C` (centres undefined) it was -0.539%; in that of `CC(=O)N(Cc1noc(C2CC2)n1)C1CCN(Cc2cc(C)on2)C1` (centres undefined), -3.51%; in that of `COc1ncccc1NC(=O)C1CCOCC1`, 22.9%.
Regarding `CC(C)N(C)Cc1cn2c(n1)CN(Cc1ccsc1)CC2`, the cytotoxicity at 70.5 h came out at 10.4%.
In the case of `CCN(CC)C(=O)c1nnsc1-c1ccc(Cl)cc1` it was -17.2%; in that of `c1ccn2c(SCC3CN=C(N4CCOCC4)S3)ncc2c1` (centres undefined), 19.3%; in that of `O=C(NCCCn1cccn1)C1CCC(=O)N(CC2CCCCC2)C1` (centres undefined), -2.08%.
In the case of `Cc1cc(F)ccc1-n1cc(O)c(C(=O)NCC2(O)CCC2)n1` it was 28.4%; in that of `CCc1nsc(NC2CCCn3nc(CC)nc32)n1` (centres undefined), -5.19%.
In the case of `C=C(C)COc1ccccc1C(=O)NCCc1cc(O)nc(C)n1` it was -11.9%.
In the case of `NC(=O)CN1CC2(CCC1=O)CCN(Cc1ccccc1F)CC2`, the cytotoxicity at 70.5 h is -5.65%.
`Cn1ccnc1Sc1ncc(C(=O)N2CCCCC2)cc1Cl`: the cytotoxicity at 70.5 h was -4.57%.
In the case of `CCN1CCN(C)C2(CCN(Cc3ccc(C)o3)CC2)C1=O` it was -7.08%; in that of `CC(C(=O)N1CCOCC1)N1CCN(Cc2nccn2C)CC1` (centres undefined), -2.07%.
As to `COc1ccc(CNc2ncnc3c2NC(=O)CN3)cc1`, the cytotoxicity at 70.5 h is -6.06%.
In the case of `Cc1nccn1CCCN1CCCC(c2ccccc2)C1` (centres undefined) it was -1.68%.
The figure for `Cc1ccc(CN2C[C@@H]3CCCO[C@@H]3[C@H](NC(=O)CC3CC3)C2)s1` is -1.25%.
Regarding `Cc1noc(C2CN(S(=O)(=O)C3CC3)Cc3ccnn3C2)n1` (centres undefined), the cytotoxicity at 70.5 h was 10.2%.
On to `COC(=O)CCC(=O)NCc1cccnc1N1CCc2ccccc2C1`, for which the cytotoxicity at 70.5 h was 3.31%.
In the case of `CN(C)C(=O)NCC1CC2(CO1)CN(c1nncs1)C2` (centres undefined) it was 1.71%.
In the case of `Cc1ccc(N2CCCC(NC(=O)C(C)(C)C#N)C2=O)cc1` (centres undefined) it was 1.69%.
In the case of `NC[C@H]1CC[C@H](C(NC(=O)c2ccccn2)c2ccccn2)CC1` (some centres undefined) it was -4.69%; in that of `Cc1nn(C)c(C)c1C1CCCN1C(=O)CCNc1ncccn1` (centres undefined), -4.27%; in that of `Cc1cc(C(=O)N2CCC3(CC2)C(=O)N(C)CCN3CC2CC2)c(C)o1`, -2.24%.
`COCCN(C)CCN1CC2(CCN(C3CCNCC3)CC2)OC1=O`: the cytotoxicity at 70.5 h was -10.2%.
Regarding `COCCn1c2c(ccc1=O)CCN(Cc1ccoc1)CC2`, the cytotoxicity at 70.5 h is -3.82%.
In the case of `CN1CC(C(=O)NC(C)(C)CNC(=O)OC(C)(C)C)CC1=O` (centres undefined) it was 9.2%; in that of `Cc1cc(F)c(S(=O)(=O)Nc2ccn(CCC#N)n2)cc1F`, -16.3%.
In the case of `CC(C)c1noc(CCC(=O)NCC2CCC(C(N)=O)CC2)n1` (centres undefined) it was 1.53%; in that of `CN(Cc1ccc(CCC(C)(C)O)cc1)Cc1cccnc1`, -11.5%.
The figure for `COc1ccccc1C(C(=O)O)N1CCCN(C2CCCC2)CC1` (centres undefined) is 16.1%; for `CS(=O)(=O)c1cn[nH]c1C1CCCCN1C(=O)c1ccsc1` (centres undefined) it is -1.64%.
As for `Cc1noc(CNC(=O)C2CSCCC(=O)N2)n1` (centres undefined), the cytotoxicity at 70.5 h was -12.9%.
The figure for `O=C(c1ccc2c(c1)OCO2)N1CCN2C(=O)NC[C@H]2C1` is -7.42%; for `Cn1nnc(NCc2ccc(-c3ccc(Cl)cc3)o2)n1` it is -4.59%.
For `Cc1noc2ncnc(N(C)Cc3ccco3)c12`, the cytotoxicity at 70.5 h was -16.7%.
In the case of `Cn1cc(C2CC(=O)NC23CCN(C(=O)c2ccc[nH]2)CC3)cn1` (centres undefined) it was -1.53%; in that of `Cc1c(NCCOCC(F)(F)F)cccc1C(=O)N1CCCC1`, -10.8%.
As for `CCCc1cc(C(=O)N2C[C@H]3CC=C(C)C[C@H]3C2)ccn1`, the cytotoxicity at 70.5 h was -8.24%.
In the case of `CC(Cn1cccn1)NC(=O)NCCc1ccsc1` (centres undefined), the cytotoxicity at 70.5 h came to 15.4%.
In the case of `CCc1ccc(NC(=O)Nc2c(O)oc3ccccc3c2=O)cc1`, the cytotoxicity at 70.5 h is -9.4%.
The figure for `CN(Cc1cc(-c2ccccc2)no1)Cc1nccn1C` is 9.3%; for `O=C(NCCC(=O)N1CCCc2ccccc21)c1ccc(F)cc1F` it is -14.2%.
As to `CC(Cn1ccnc1)NS(=O)(=O)Cc1ccc(F)cc1` (centres undefined), the cytotoxicity at 70.5 h was -2.62%.
The figure for `COc1ccc(Cl)cc1C(=O)N1CCOC2(CNCCOC2)C1` (centres undefined) is -0.31%; for `Cc1ccccc1S(=O)(=O)NC(=O)C1(c2ccccc2)CCC1` it is -9.55%; for `COc1cccc(C(O)C(=O)N(C)CCc2ccccn2)c1` (centres undefined) it is -0.0669%.
In the case of `CCc1n[nH]c(C2CN(C(=O)c3cnn(CC)c3)CCO2)n1` (centres undefined) it was 19.6%; in that of `OC(CN1CCN(CCOCC(F)(F)F)CC1)c1ccccc1` (centres undefined), 24.5%.
With `O=C(NCCCO)C1CC(=O)N(c2n[nH]c3cccc(F)c23)C1` (centres undefined), the cytotoxicity at 70.5 h was determined as 1.35%.
The figure for `CCS(=O)(=O)N1CCc2c(cccc2NCc2ncc[nH]2)C1` is -10%; for `COc1ccc2c(c1)CC(NCCCn1cc(C)cn1)CC2` (centres undefined) it is 1.45%.
The figure for `Cn1c(Cn2ccnc2)nnc1C1CCCN(c2ncccn2)C1` (centres undefined) is -9.36%; for `Cc1cc(=O)c2ccccc2n1CC1CCN(C(C)C)C1` (centres undefined) it is -1.13%.
